From ChEMBL document CHEMBL5150071, “BAY-7081: A Potent, Selective, and Orally Bioavailable Cyanopyridone-Based PDE9A Inhibitor” (J Med Chem, 2022)
In brackets after ≈: the same amount, converted by molar mass. Activity calls are given as the source filed them. The rule behind the calls is not given here.

Key:
[1] = Solubility of compound in PBS at pH 6.5 at 50 mg/ml incubated for 24 hrs by LC/MS/MS or HPLC analysis; assay type: physicochemical; conditions: buffer, pH 6.5, 24 h
[2] = biological target: High affinity cGMP-specific 3',5'-cyclic phosphodiesterase 9A (Homo sapiens, UniProt O76083); assay: Inhibition of full length human PDE9A expressed in Sf9 insect cells using [3H]-cGMP as substrate incubated for 60 mins by microbeta scintillation counter analysis
Sequence of High affinity cGMP-specific 3',5'-cyclic phosphodiesterase 9A (O76083 whole entry): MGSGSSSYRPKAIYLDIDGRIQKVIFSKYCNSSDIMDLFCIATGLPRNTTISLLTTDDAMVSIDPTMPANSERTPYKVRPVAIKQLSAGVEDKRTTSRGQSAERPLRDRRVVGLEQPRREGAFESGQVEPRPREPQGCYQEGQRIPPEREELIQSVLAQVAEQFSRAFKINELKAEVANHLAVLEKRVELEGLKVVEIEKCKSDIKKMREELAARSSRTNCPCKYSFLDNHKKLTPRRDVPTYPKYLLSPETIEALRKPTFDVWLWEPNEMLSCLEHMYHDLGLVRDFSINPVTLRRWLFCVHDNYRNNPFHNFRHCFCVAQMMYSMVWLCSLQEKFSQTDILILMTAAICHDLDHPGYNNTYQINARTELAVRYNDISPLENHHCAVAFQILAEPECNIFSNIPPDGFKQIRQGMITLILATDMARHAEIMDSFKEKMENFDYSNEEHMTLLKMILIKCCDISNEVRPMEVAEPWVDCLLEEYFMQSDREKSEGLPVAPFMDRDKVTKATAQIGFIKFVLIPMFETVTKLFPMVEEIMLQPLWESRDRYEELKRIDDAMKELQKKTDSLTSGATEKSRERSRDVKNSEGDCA

[3] = Selectivity index, ratio of IC50 for bovine brain PDE1 to IC50 for full length human PDE9A
[4] = organism: Homo sapiens; assay: Selectivity index, ratio of IC50 for full length human PDE3B to IC50 for full length human PDE9A
[5] = organism: Homo sapiens; assay: Selectivity index, ratio of IC50 for full length human PDE2A to IC50 for full length human PDE9A
[6] = organism: Homo sapiens; assay: Selectivity index, ratio of IC50 for full length human PDE7B to IC50 for full length human PDE9A
[7] = organism: Homo sapiens; assay: Selectivity index, ratio of IC50 for full length human PDE10A to IC50 for full length human PDE9A
[8] = organism: Homo sapiens; assay: Selectivity index, ratio of IC50 for human platelet PDE5A to IC50 for full length human PDE9A
[9] = organism: Homo sapiens; assay: Selectivity index, ratio of IC50 for full length human PDE11A to IC50 for full length human PDE9A
[10] = Blood clearance in po or iv dosed Wistar rat measured over 24 hrs by LC-MS/MS analysis; assay type: ADME, organism-based; conditions: in vivo
[11] = organism: Homo sapiens; assay: Selectivity index, ratio of IC50 for full length human PDE8A to IC50 for full length human PDE9A
[12] = biological target: T1, High affinity cGMP-specific 3',5'-cyclic phosphodiesterase 9A (Rattus norvegicus) (UniProt Q8QZV1); assay: Inhibition of rat PDE9A using [3H]-cGMP as substrate at 42 nM incubated for 60 mins by microbeta scintillation counter analysis relative to control
T1 sequence (whole entry): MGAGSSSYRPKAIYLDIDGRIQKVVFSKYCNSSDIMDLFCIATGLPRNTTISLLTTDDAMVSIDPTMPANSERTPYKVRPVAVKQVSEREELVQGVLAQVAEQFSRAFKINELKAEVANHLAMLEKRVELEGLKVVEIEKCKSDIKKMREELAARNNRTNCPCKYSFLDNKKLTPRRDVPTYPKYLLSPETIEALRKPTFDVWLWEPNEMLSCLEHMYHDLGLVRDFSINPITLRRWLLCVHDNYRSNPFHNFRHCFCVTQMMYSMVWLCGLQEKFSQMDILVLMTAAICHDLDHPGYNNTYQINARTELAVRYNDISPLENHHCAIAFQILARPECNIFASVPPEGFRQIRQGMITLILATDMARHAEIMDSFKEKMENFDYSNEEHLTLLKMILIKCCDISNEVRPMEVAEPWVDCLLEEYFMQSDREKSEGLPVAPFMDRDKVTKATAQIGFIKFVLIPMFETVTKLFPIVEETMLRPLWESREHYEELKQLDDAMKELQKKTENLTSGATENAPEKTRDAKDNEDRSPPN

[13] = Selectivity index, ratio of IC50 for bovine PDE6 to IC50 for full length human PDE9A
[14] = test system: Rattus norvegicus; assay: In vivo inhibition of PDE9A in Sprague-Dawley rat assessed as increase in cGMP level in urine at 40 mg/kg, po measured after 85 mins by ELISA; assay type: functional, organism-based
[15] = biological target: T2, High affinity cGMP-specific 3',5'-cyclic phosphodiesterase 9A (Mus musculus) (UniProt O70628); assay: Inhibition of mouse PDE9A using [3H]-cGMP as substrate at 34 nM incubated for 60 mins by microbeta scintillation counter analysis relative to control
T2 sequence (whole entry): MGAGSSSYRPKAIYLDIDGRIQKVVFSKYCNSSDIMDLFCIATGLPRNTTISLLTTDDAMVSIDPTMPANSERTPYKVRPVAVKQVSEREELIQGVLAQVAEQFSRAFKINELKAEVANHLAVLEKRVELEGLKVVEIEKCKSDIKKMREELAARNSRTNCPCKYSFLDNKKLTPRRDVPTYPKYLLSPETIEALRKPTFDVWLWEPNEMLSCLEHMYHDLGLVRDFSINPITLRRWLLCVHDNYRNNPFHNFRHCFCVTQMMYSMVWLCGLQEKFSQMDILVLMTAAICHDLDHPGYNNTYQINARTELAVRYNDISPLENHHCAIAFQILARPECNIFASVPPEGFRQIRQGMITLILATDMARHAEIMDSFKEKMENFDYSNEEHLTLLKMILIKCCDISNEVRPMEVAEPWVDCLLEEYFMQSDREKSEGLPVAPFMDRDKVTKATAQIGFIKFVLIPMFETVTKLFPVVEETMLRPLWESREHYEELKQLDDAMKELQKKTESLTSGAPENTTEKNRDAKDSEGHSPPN

[16] = organism: Homo sapiens; assay: Selectivity index, ratio of IC50 for full length human PDE4B to IC50 for full length human PDE9A
[17] = Blood clearance in Wistar rat at 1 mg/kg, po or 0.3 mg/kg, iv measured over 24 hrs by LC-MS/MS analysis; assay type: ADME, organism-based; conditions: in vivo
[18] = Volume of distribution at steady state in dog at 1 mg/kg, po or 0.3 mg/kg, iv measured over 24 hrs by LC-MS/MS analysis; assay type: ADME, organism-based, Canis lupus familiaris; conditions: in vivo
[19] = test system: Mus musculus; assay: In vivo inhibition of PDE9A in mouse myocardial hypertrophy model with transverse aortic constriction assessed as improvement of heart function at 10 mg/kg administered twice daily for 5 weeks; assay type: functional, organism-based
[20] = Volume of distribution at steady state in Wistar rat at 1 mg/kg, po or 0.3 mg/kg, iv measured over 24 hrs by LC-MS/MS analysis; assay type: ADME, organism-based; conditions: in vivo
[21] = test system: Mus musculus; assay: In vivo inhibition of PDE9A in mouse myocardial hypertrophy model with transverse aortic constriction assessed as reduction in minimal diastolic left ventricular pressure at 10 mg/kg administered twice daily for 5 weeks; assay type: functional, organism-based
[22] = test system: Rattus norvegicus; assay: In vivo inhibition of PDE9A in Sprague-Dawley rat assessed as increase in cGMP level in urine at 10 to 50 mg/kg, po measured after 85 mins by ELISA; assay type: functional, organism-based; conditions: dose 10-50 mg/kg
[23] = Toxicity in rat assessed as increase in blood pressure at 10 to 50 mg/kg, po administered twice daily via gavage and measured every 5 mins by telemetry system based analysis; assay type: organism-based; conditions: in vivo, dose 10-50 mg/kg
[24] = MRT in Wistar rat at 0.3 mg/kg, iv measured over 24 hrs by LC-MS/MS analysis; assay type: ADME, organism-based; conditions: in vivo
[25] = Toxicity in rat assessed as increase in heart rate at 10 to 50 mg/kg, po administered twice daily via gavage and measured every 5 mins by telemetry system based analysis; assay type: organism-based; conditions: in vivo, dose 10-50 mg/kg
[26] = Blood clearance in dog at 1 mg/kg, po or 0.3 mg/kg, iv measured over 24 hrs by LC-MS/MS analysis; assay type: ADME, organism-based, Canis lupus familiaris; conditions: in vivo
[27] = Oral bioavailability in dog at 1 mg/kg measured over 24 hrs by LC-MS/MS analysis; assay type: ADME, organism-based, Canis lupus familiaris; conditions: in vivo
[28] = Oral bioavailability in Wistar rat at 1 mg/kg measured over 24 hrs by LC-MS/MS analysis; assay type: ADME, organism-based; conditions: Wistar, in vivo
[29] = MRT in dog at 0.3 mg/kg, iv measured over 24 hrs by LC-MS/MS analysis; assay type: ADME, organism-based, Canis lupus familiaris; conditions: in vivo
[30] = test system: Mus musculus; assay: In vivo inhibition of PDE9A in mouse myocardial hypertrophy model with transverse aortic constriction assessed as reduction of hypertrophy of the left atrium at 10 mg/kg administered twice daily for 5 weeks; assay type: functional, organism-based
[31] = Drug metabolism in cryopreserved human hepatocytes assessed as glucuronidation of cyclic lactam at 10 uM incubated for 4 hrs by LC-MS/MS analysis; assay type: ADME, cell-based, Hepatocyte
[32] = Drug metabolism in rat hepatocytes assessed as glucuronidation of cyclic lactam at 10 uM incubated for 4 hrs by LC-MS/MS analysis; assay type: ADME, cell-based, Hepatocyte

Row | Compound | IC50 [2] | Ratio IC50 [3] | Ratio IC50 [4] | Ratio IC50 [5] | Ratio IC50 [6] | Ratio IC50 [7] | Ratio IC50 [8] | Ratio IC50 [9] | Ratio IC50 [11] | Ratio IC50 [16] | further results
1 | Cc1ccc(-c2c3c([nH]c(=O)c2C#N)C(C)CCC3)cc1 (racemic) | 310 nM | 3 |  |  |  |  |  |  |  |  | solubility [1]: 9 µg/mL (≈ 32.3 µM)
2 | CCCC1CNCc2c1[nH]c(=O)c(C#N)c2N1CCC(C)(C)CC1.Cl (configuration not stated) |  |  | > 100 | > 100 | > 100 | > 100 | > 100 | > 100 | > 100 |  | CL [10]: 46.7 mL/min/kg
3 | CCCC1CNCc2c1[nH]c(=O)c(C#N)c2N1CCC2(CC1)CC2(F)F (racemic) |  | 30 |  |  |  |  |  |  |  |  | 
4 | CCCC1CNCc2c1[nH]c(=O)c(C#N)c2N1CCC2(CC1)CC2 (stereo in doubt; form 2) |  | 49 | > 650 | > 650 | > 650 | > 650 | 143 | 430 | 97 | 238 | inhibition [12]: 50%; Ratio IC50 [13]: 101; inhibition [14]: Active; inhibition [15]: 50%
5 | C[C@@H]1CN(Cc2ncccn2)C[C@H]1c1nc2c(cnn2C2CCOCC2)c(=O)[nH]1 [EDELINONTRINE] |  |  |  |  |  |  |  |  |  |  | CL [17]: 50 mL/min/kg; Vdss [18]: 1.5 L/kg; inhibition [19]: Active; Vdss [20]: 2.2 L/kg; inhibition [21]: Active; inhibition [22]: Active; Activity [23]: Non-Toxic; MRT [24]: 0.8 h; Activity [25]: Non-Toxic; CL [26]: 8.3 mL/min/kg; F [27]: 38%; bioavailability [28]: 41%; MRT [29]: 3.1 h; inhibition [30]: Active
6 | CCCC1CCCc2c(-c3ccc(C)cc3)nc(=O)[nH]c21 (racemic) | 13400 nM |  |  |  |  |  |  |  |  |  | 
7 | CCCC1CCCc2c1[nH]c(=O)c(C#N)c2-c1ccc(C)cc1 (configuration not stated) |  |  | 69 | 69 | 69 | 69 | 69 | 69 | 69 | 69 | 
8 | CCCC1CNCc2c1[nH]c(=O)c(C#N)c2-c1ccc(C)cc1.Cl (configuration not stated) |  |  | > 100 | > 100 | > 100 | > 100 | > 100 | > 100 | > 100 | > 100 | Drug metabolism [31]: Metabolite_Detected; Drug metabolism [32]: Metabolite_Detected; CL [10]: 60 mL/min/kg
9 | Cc1ccc(-c2c(C#N)c(=O)[nH]c3cccnc23)cc1 | 725 nM |  |  |  |  |  |  |  |  |  | 
10 | CCCC1CNCc2c1[nH]c(=O)c(C#N)c2N1CCC2(CCOC2)CC1 (racemic) | 13 nM | 12 |  |  |  |  |  |  |  |  | 
